According to patent publication US9376391B2, “Difluoromethyl-nicotinic-tetrahydronaphthyl carboxamides as fungicides” (BAYER CROPSCIENCE AKTIENGESELLSCHAFT, priority 2012, dated 2016):

Assays:
[1] = log P by HPLC on reversed phase columns (EEC directive 79/831 Annex V.A8); format: physicochemical; conditions: HPLC/LC-MS at pH 2.7, 0.1% formic acid in water / acetonitrile, gradient 10% to 95%
Uromyces appendiculatus = experiment: In vivo preventive test on Uromyces appendiculatus (bean rust); conditions: preventive spray, bean plants, grading 11 days after contamination
Protocol: In Vivo Preventive Test on Uromyces appendiculatus (Bean Rust) […] Bean plants (“Saxa” variety), sown in starter cups on a 50/50 peat soil-pozzolana substrate and grown at 24° C., are treated at the 2-leaf stage (9 cm height) by spraying with the active ingredient prepared as described above. Plants, used as controls, are treated with the mixture of acetone/tween/DMSO/water not containing the active material. After 24 hours, the plants are contaminated by spraying the leaves with an aqueous suspension of Uromyces appendiculatus spores (150 000 spores per ml). The spores are collected from infected plants and are suspended in water containing 2.5 ml/1 of Tween 80 at 10%. The contaminated bean plants are incubated for 24 hours at 20° C. and at 100% relative humidity, and then for 10 days at 20° C. and at 70-80% relative humidity. Grading (% of efficacy) is carried out 11 days after the contamination, in comparison with the control plants.

Puccinia recondita = experiment: In vivo preventive test on Puccinia recondita (brown rust on wheat); conditions: wheat, spray, graded 12 days after contamination vs control plants
Protocol: In Vivo Preventive Test on Puccinia recondita (Brown Rust on Wheat) […] Wheat plants (“Scipion” variety), sown in starter cups on a 50/50 peat soil-pozzolana substrate and grown at 22° C., are treated at the 1-leaf stage (10 cm height) by spraying with the active ingredient prepared as described above. Plants, used as controls, are treated with the mixture of acetone/tween/DMSO/water not containing the active material. After 24 hours, the plants are contaminated by spraying the leaves with an aqueous suspension of Puccinia recondita spores (100 000 spores per ml). The spores are collected from an infected plant and are suspended in water containing 2.5 ml/1 of Tween 80 at 10%. The contaminated wheat plants are incubated for 24 hours at 20° C. and at 100% relative humidity, and then for 10 days at 20° C. and at 70-80% relative humidity. Grading (% of efficacy) is carried out 12 days after the contamination, in comparison with the control plants.

Sphaerotheca fuliginea = experiment: In vivo preventive test on Sphaerotheca fuliginea (powdery mildew on cucurbits); conditions: 500 ppm, preventive spray, gherkin plants, grading 12 days after contamination
Protocol: In Vivo Preventive Test on Sphaerotheca fuliginea (Powdery Mildew on Cucurbits)
The active ingredients tested are prepared by homogenization in a mixture of acetone/tween/DMSO and then diluted with water to obtain the desired active material concentration.
Gherkin plants (“Vert petit de Paris” variety), sown in starter cups on a 50/50 peat soil-pozzolana substrate and grown at 24° C., are treated at the Z11 cotyledon stage by spraying with the active ingredient prepared as described above. Plants, used as controls, are treated with the mixture of acetone/tween/DMSO/water not containing the active material.
After 24 hours, the plants are contaminated by spraying the cotyledons with an aqueous suspension of Sphaerotheca fuliginea spores (100 000 spores per ml). The spores are collected from infected plants. The contaminated gherkin plants are incubated at about 20° C. and at 70-80% relative humidity.
Grading (% of efficacy) is carried out 12 days after the contamination, in comparison with the control plants.

[2] = Table 2, amines of formula (III-a)

SMILES	logP^[a] ([1]; Table 1, formula (I))	Eff. % (Puccinia recondita; dose 500 ppm)	other results
CCC1(C)CC(C)c2c(NC(=O)c3ccc(Cl)nc3C(F)F)cccc21 (mixture of isomers) [Example 83]	4.36^[a]		Eff. % (Uromyces appendiculatus; 100 ppm): 72%; Eff. % (Puccinia recondita; dose 100 ppm): 83%
CC1CC(C(C)(C)C)c2cccc(NC(=O)c3cccnc3C(F)F)c21 (mixture of isomers) [Example 93]	3.94^[a]		
CC1CC(C)(C)c2cccc(NC(=O)c3ccc(Cl)nc3C(F)F)c21 (racemic) [Example 18]	3.99^[a]	89%	
CC1OC(C)(C)c2cccc(NC(=O)c3ccc(Cl)nc3C(F)F)c21 (racemic) [Example 24]	2.77^[a]	89%	Eff. % (Uromyces appendiculatus; 500 ppm): 100%
CC(C)CC1CCc2c(NC(=O)c3cccnc3C(F)F)cccc21 (racemic) [Example 41]	3.94^[a]	98%	Eff. % (Uromyces appendiculatus; 500 ppm): 100%
Cc1cnc(C(F)F)c(C(=O)Nc2cccc3c2CC(C(C)C)C3(C)C)c1 (racemic) [Example 44]		83%	Eff. % (Uromyces appendiculatus; 500 ppm): 93%
CC(C)C1Cc2c(NC(=O)c3ccc(Cl)nc3C(F)F)cccc2C1(C)C (racemic) [Example 45]	4.77^[a]	89%	Eff. % (Uromyces appendiculatus; 500 ppm): 88%
CCON=C1CC(C)c2c(NC(=O)c3cc(C)cnc3C(F)F)cccc21 (racemic) [Example 50]	2.99^[a]	94%	Eff. % (Uromyces appendiculatus; 500 ppm): 100%
CCCCON=C1CC(C)c2c(NC(=O)c3cc(C)cnc3C(F)F)cccc21 (racemic) [Example 53]	3.46^[a]		
Cc1cnc(C(F)F)c(C(=O)Nc2cccc3c2C(C)CC32CC2)c1 (racemic) [Example 54]	3.31^[a]		
CC1CC(C)(C)c2cccc(NC(=O)c3cc(Cl)cnc3C(F)F)c21 (racemic) [Example 55]	4.06^[a]	72%	
CC1CC2(CC2)c2cccc(NC(=O)c3ccc(Cl)nc3C(F)F)c21 (racemic) [Example 58]	3.73^[a]	81%	Eff. % (Uromyces appendiculatus; 500 ppm): 95%
Cc1cnc(C(F)F)c(C(=S)Nc2cccc3c2C(C)CC32CC2)c1 (racemic) [Example 68]	3.68^[a]		Eff. % (Puccinia recondita; dose 100 ppm): 100%
CCC1OC(CC)(CC)c2cccc(NC(=O)c3cc(C)cnc3C(F)F)c21 (racemic) [Example 72]	3.52^[a]		
CCC1OC(C)(C)c2cccc(NC(=O)c3cc(C)cnc3C(F)F)c21 (racemic) [Example 73]	2.64^[a]		Eff. % (Puccinia recondita; dose 100 ppm): 78%
CCC1OC(C)(C)c2cccc(NC(=O)c3ccc(Cl)nc3C(F)F)c21 (racemic) [Example 74]	3.09^[a]		Eff. % (Puccinia recondita; dose 100 ppm): 72%
Cc1cnc(C(F)F)c(C(=O)Nc2cccc3c2C(C(C)C)OC3(C)C)c1 (racemic) [Example 75]	3.00^[a]		
CON=C1CCc2c(NC(=O)c3cccnc3C(F)F)cccc21 [Example 5]	2.15^[a]		
CCON=C1CCc2c(NC(=O)c3cccnc3C(F)F)cccc21 [Example 8]	2.54^[a]	78%	
CC1CC(C)(C)c2c(Cl)ccc(NC(=O)c3cccnc3C(F)F)c21 (stereo not shown) [Example 16]	3.73^[a]		
CC1(C)OCc2c(NC(=O)c3cccnc3C(F)F)cccc21 [Example 17]	2.01^[a]	100%	Eff. % (Uromyces appendiculatus; 500 ppm): 100%
CC1CC(C)(C)c2c(F)ccc(NC(=O)c3ccc(Cl)nc3C(F)F)c21 (stereo not shown) [Example 19]	4.09^[a]	100%	Eff. % (Uromyces appendiculatus; 500 ppm): 79%
Cc1cnc(C(F)F)c(C(=O)Nc2cccc3c2C(C)CC3(C)C)c1 (stereo not shown) [Example 21]	3.55^[a]	72%	Eff. % (Uromyces appendiculatus; 500 ppm): 88%
Cc1cnc(C(F)F)c(C(=O)Nc2cccc3c2C(C)OC3(C)C)c1 (stereo not shown) [Example 22]	2.37^[a]	83%	
CCC1(CC)OC(C)c2c(NC(=O)c3cc(C)cnc3C(F)F)cccc21 (stereo not shown) [Example 26]	3.15^[a]		
CC1CC(C)(C)c2cccc(NC(=O)c3c(C(F)F)ccnc3C(F)F)c21 (stereo not shown) [Example 28]	3.79^[a]		
CON=C1CC(C)c2c(NC(=O)c3cc(C)cnc3C(F)F)cccc21 (stereo not shown) [Example 29]	2.61^[a]		

SMILES	logP^[a] ([1]; Table 1, formula (I))	Eff. % (Puccinia recondita; dose 500 ppm)	other results
Cc1cnc(C(F)F)c(C(=O)Nc2cccc3c2C(C)C(C)C3(C)C)c1 (stereo not shown) [Example 35]	3.79^[a]	93%	
Cc1cnc(C(F)F)c(C(=O)Nc2cccc3c2CC(C)(C)C3)c1 [Example 48]	3.35^[a]		
CCC1(CC)Cc2c(NC(=O)c3cc(C)cnc3C(F)F)cccc2C1C (stereo not shown) [Example 61]	4.39^[a]	78%	
Cc1cnc(C(F)F)c(C(=O)Nc2cccc3c2CC(C)(C)C3C)c1 (stereo not shown) [Example 63]	3.65^[a]	83%	
CC1c2cccc(NC(=O)c3ccc(Cl)nc3C(F)F)c2CC1(C)C (stereo not shown) [Example 64]	4.04^[a]	98%	Eff. % (Uromyces appendiculatus; 500 ppm): 84%; Eff. % (Sphaerotheca fuliginea): 94%
CC(C)C1Cc2c(NC(=S)c3ccc(Cl)nc3C(F)F)cccc2C1(C)C (stereo not shown) [Example 66]	5.11^[a]		Eff. % (Uromyces appendiculatus; 100 ppm): 85%; Eff. % (Puccinia recondita; dose 100 ppm): 98%
Cc1cnc(C(F)F)c(C(=S)Nc2cccc3c2CC(C(C)C)C3(C)C)c1 (stereo not shown) [Example 67]	4.74^[a]		Eff. % (Uromyces appendiculatus; 100 ppm): 100%; Eff. % (Puccinia recondita; dose 100 ppm): 89%
CCC1Cc2c(NC(=S)c3cc(C)cnc3C(F)F)cccc2C1(C)C (stereo not shown) [Example 70, 2-(difluoromethyl)-N-(2-ethyl-1,1-dimethyl-2,3-dihydro-1H-inden-4-yl)-5-methylpyridine-3-carbothioamide]			chromatographic logP ([1]; reversed phase HPLC columns, Table 1, formula (I)): 4.41; Eff. % (Uromyces appendiculatus; 100 ppm): 100%; Eff. % (Puccinia recondita; dose 100 ppm): 98%
Cc1cnc(C(F)F)c(C(=O)Nc2cccc3c2C(C)C(C)(C)C3)c1 (stereo not shown) [Example 86]	3.59^[a]		
CC1c2c(cccc2NC(=O)c2ccc(Cl)nc2C(F)F)CC1(C)C (stereo not shown) [Example 87]	3.96^[a]		
CCCC1CC(C)c2c(NC(=O)c3cccnc3C(F)F)cccc21 (stereo not shown) [Example 89]	3.79^[a]		
CC1(C)CCc2c(NC(=O)c3cccnc3C(F)F)cccc21 [Example 92]	3.08^[a]		
CC1(C)CC(C(F)F)c2c(NC(=O)c3cccnc3C(F)F)cccc21 (stereo not shown) [Example 94]	3.15^[a]		
CC(C)(C)CC1CC(C)(C)c2cccc(NC(=O)c3cccnc3C(F)F)c21 (stereo not shown) [Example 95]	4.54^[a]		
CC1(C)CC(C(Cl)Cl)c2c(NC(=O)c3cccnc3C(F)F)cccc21 (stereo not shown) [Example 96]	3.97^[a]		
O=C(Nc1cccc2c1C(=C(Cl)Cl)CC2)c1cccnc1C(F)F [Example 97]	2.96^[a]		
CC1CC(=CCl)c2cccc(NC(=O)c3cccnc3C(F)F)c21 (stereo not shown) [Example 98]	3.71^[a]		
CC1CC(=C(Cl)Cl)c2cccc(NC(=O)c3cccnc3C(F)F)c21 (stereo not shown) [Example 99]	3.13^[a]		
CC1CC(C)(C)c2ccc(F)c(NC(=O)c3cccnc3C(F)F)c21 (stereo not shown) [Example 100]	3.26^[a]		
Cl.Nc1cccc2c1C(=C(Cl)Cl)CC2 [III-a-3]			logP^[a] [1, 2]: 3.42^[a]
CC1CC(=C(Cl)Cl)c2cccc(N)c21.Cl (stereo not shown) [III-a-4]			logP^[a] [1, 2]: 3.60^[a]
CC(C)(C)CC1CC(C)(C)c2cccc(N)c21 (stereo not shown) [III-a-6]			logP^[a] [1, 2]: 4.98^[a]
CC1(C)CC(C(Cl)Cl)c2c(N)cccc21 (stereo not shown) [III-a-7]			logP^[a] [1, 2]: 4.39^[a]
CC(C)(C)CC1CCc2cccc(N)c21.Cl (stereo not shown) [III-a-8]			logP^[a] [1, 2]: 4.04^[a]
CC1(C)CC(C(F)F)c2c(N)cccc21 (stereo not shown) [III-a-9]			logP^[a] [1, 2]: 2.75^[a]
CC1CC(C)(C)c2ccc(F)c(N)c21 (stereo not shown) [III-a-10]			logP^[a] [1, 2]: 3.71^[a]
